What all share (assay): NCI tumour cell line growth inhibition, 48 h
Assay [1] has as its system MDA-N.
The subject of assay [2] is DLD-1 colon.
The subject of assay [3] is DMS 114 small cell lung.
The subject of assay [4] is DMS 273 small cell lung.
Assay [5] has as its system HOP-18 NSCLC.
In assay [6] the test system is M19-MEL melanoma.
The subject of assay [7] is SNB-78 CNS.
Assay [8] has as its system XF 498 CNS.
For assay [9], the system named is P388 leukemia.
Assay [10] relates to P388/ADR leukemia.
Assay [11] relates to SN12K1 renal.
In assay [12] the test system is RXF-631 renal.

Several values for one entry are separate records, joined by “and”; a condition that tells them apart may be missing. Equal entries are not always repeated.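 Results reflect a 48-hour exposure of cells in 96-well plates to compound at five concentrations. At the GI50, growth is halved. TGI: total growth inhibition.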

On to `COc1cc2c(c(OC)c1OC)-c1c(cc3c(c1OC)OCO3)CC(C)C(C)(O)C2OC(=O)c1ccccc1` (stereo not given), for which the TGI in [1] was above 100 µM.
With `O=C(NCC(=O)N1CCOC1=O)OCc1ccccc1`, the TGI in assay [2], in [3], in [4], in assay [5], in assay [6] and in assay [7] was above 100 µM throughout. The compound also showed a TGI in assay [8] above 100 µM.
Consider `COc1cccc2c1[C@H]1CO[C@H]3C4C[C@H](C(=O)O)C([C@@H](C2)N13)N4C` (stereo not given in full), for which the GI50 in assay [2] was 0.452 µM; in assay [3], 0.187 µM; in [4] it was 0.516 µM; in assay [5], 1.13 µM; in assay [6], 0.611 µM; in assay [7] it was 0.388 µM. Also, the GI50 in [8] was 0.632 µM. Further, the TGI is 7.81 µM and 17.4 µM in [2]; 4.66 µM and 0.803 µM in [3]; 1.31 µM in [4]; above 27.5 µM in [5]; 9.62 µM and 1.32 µM in assay [6]; 0.406 µM in assay [1]. Moreover, the TGI is 5.25 µM in [9]; 0.652 µM in assay [10]; 8.4 µM in assay [11]; 9.27 µM and > 30.5 µM in [7]; 4.19 µM and 1.5 µM in [8].
Consider `Cn1nnc2c(C(N)=O)ncn2c1=O`, for which the TGI in assay [2], in [3], in assay [5], in [6], in assay [1] and in assay [7] was above 100 µM in each case. In addition, in [8], the TGI was above 100 µM.
As for `COCCOCOC(C)(C)[C@H](CCOC(C)=O)O[Si](c1ccccc1)(c1ccccc1)C(C)(C)C`, the TGI in assay [2] is above 100 µM; in [3] it was 55.4 µM; in [4], 26.3 µM; in [5], above 100 µM; in [6], 43.2 µM; in assay [12], 43.1 µM. The compound also had a TGI in assay [7] of 97.4 µM.
For `O=C(O)[C@@H](NS(=O)(=O)c1ccc2ccccc2c1)c1ccccc1`, the TGI in assay [2], in [4], in assay [5], in assay [6], in assay [12] and in assay [8] was above 100 µM each time.
As to `Cc1ccc(NC(=O)CC2SC(N)=NC2=O)cc1C` (stereo not given), the TGI in assay [2], in assay [12], in assay [7] and in [8] was above 100 µM throughout.
Consider `CC(=O)NNc1nc(C)c(C(=O)/C=C/c2ccc(/C=C/C(=O)c3sc(NNC(C)=O)nc3C)cc2)s1`, for which the TGI in assay [2], in assay [3], in assay [4], in [6], in assay [12] and in assay [7] was above 100 µM each time. Besides, the TGI in assay [8] is above 100 µM.
Consider `CN1CCc2c1nc(-c1cccnc1)c1c2N(C)CC1`, for which the TGI in [2], in assay [3], in assay [4], in assay [5], in assay [6] and in assay [12] was above 100 µM each time. Also, the TGI in assay [7] and in [8] was above 100 µM throughout.
On to `O=C(N/C(=C\c1cc(Cl)ccc1Cl)c1nc2ccc(Cl)cc2[nH]1)c1ccccc1`, for which the TGI in [2] stood at 26.7 µM; in assay [3], 29.8 µM; in assay [6], 30 µM; in assay [7] it was 54.8 µM.
Take `NC(=O)C12CC3CC(CC(Br)(C3)C1)C2`: the TGI in assay [2], in assay [3], in [4], in assay [5], in [12] and in [7] was above 100 µM each time. Also, the TGI in [8] is above 100 µM.
In the case of `Nc1cc2cccc[n+]2c2cccc(Cl)c12`, in [1], the GI50 was 21.3 µM and the TGI worked out at 61.5 µM.
With `COC(=O)C#CCC1CCCC1C1SCCS1` (stereo not given), the TGI in assay [2], in assay [3], in [4], in [5], in [6] and in [12] was above 100 µM each time. For the same compound, the TGI in assay [7] and in assay [8] was above 100 µM in each case.
`CCN(CC)CCCC(C)Nc1c(Sc2cnc3cc(Cl)ccc3c2NC(C)CCCN(CC)CC)cnc2cc(Cl)ccc12` (stereo not given): the TGI in assay [2] turned out to be 3.84 µM; in [4] it was 3.17 µM; in assay [5], 4.49 µM; in [6], 3.02 µM; in assay [12], 4.48 µM; in assay [7], 4.74 µM.
Regarding `COc1cc(/C=C\c2ccncc2)cc(OC)c1OC`, the TGI in [2], in assay [3], in [4], in assay [5], in assay [12] and in [7] was above 100 µM throughout. The compound also came in with a TGI in [8] above 100 µM.
For the compound `CCCCCCCCCCCCCP(=O)(NCC(N)=O)OCC` (stereo not given), the TGI was found to be 32.7 µM in [2]; 33.4 µM in assay [3]; 14.8 µM in [5]; 35.2 µM in [6]; 35.5 µM in assay [12]; 41.2 µM in assay [7]. In assay [8], this compound came in with a TGI of 34.9 µM.
For `O=C1c2ccccc2C(=O)N1C1(C(=O)NC2(C(=O)O)CCCC2)CCCC1`, the TGI in assay [1] was above 100 µM.
The same measure, in the same setting: for `COc1cc2c(cc1-c1coc3cc(OCC=C(C)C)ccc3c1=O)OCO2` the value was 28.5 µM.
Regarding `COC/N=C(/N)NC#N`, the TGI in [2] is above 100 µM; in assay [3], 37.6 µM; in assay [4], 91.5 µM; in [5], above 100 µM; in assay [6], above 100 µM; in assay [7] it was above 100 µM.
`C#C[C@H]1CCCCCC1O` (stereo not given in full): the TGI in assay [2], in assay [3], in assay [4], in [5], in assay [6] and in assay [12] was above 100 µM each time. Besides, the TGI in assay [7] and in assay [8] was above 100 µM throughout.
For `COc1ccc(-c2onc(-c3c(C)cc(C)cc3C)c2C2=NCCN2)cc1`, the TGI in assay [2], in assay [5], in [6], in assay [12] and in [7] was above 100 µM throughout.
Regarding `NCCC(=O)NC(Cc1cnc[nH]1)C(=O)O` (stereo not given), the TGI in [1] is above 100 µM.
`O=C(CCc1nc(=S)[nH][nH]1)Nc1cccc(C(F)(F)F)c1`: the TGI in assay [2], in assay [3], in assay [4], in [5], in [7] and in assay [8] was above 100 µM in each case.
For the compound `N.N.N.N.N.O=S(=O)([O-])C(F)(F)F.O=S(=O)([O-])C(F)(F)F.[Os+8]`, in assay [7], the GI50 was 6.19 µM and the TGI stood at 77.6 µM.
The compound `CC1=C(Cl)C[C@@H](/C(C)=C\Cl)O[C@@]1(O)C(Br)Br` yielded a TGI in [1] of 41.8 µM.
Regarding `COC(=O)/C(C#N)=C1\CCc2ccccc21`, the TGI in assay [2], in assay [3], in [4], in [6] and in assay [8] was above 100 µM each time.
`Nc1ccc(C(=O)N/C(=C\c2cccc([N+](=O)[O-])c2)c2nc3ccc(Cl)cc3[nH]2)cc1`: the TGI in [2], in assay [3], in assay [6], in [12], in [7] and in assay [8] was above 100 µM each time.
`COc1ccc(Cc2nc3ccccc3s2)cc1OC`: the TGI in [2] is 31.7 µM; in assay [3], 29.9 µM; in assay [4], 29.2 µM; in [5], 62.2 µM; in assay [6], 29.4 µM; in [12], 31.7 µM. In addition, the TGI was 44.8 µM in assay [7] and 28.8 µM in assay [8].
Regarding `O=C(O)COc1ccc(C(=O)/C(SS/C(C(=O)c2ccc(OCC(=O)O)c(Cl)c2Cl)=C2\C=C(c3ccc(Br)cc3)SS2)=C2/C=C(c3ccc(Br)cc3)SS2)c(Cl)c1Cl`, the TGI in assay [2] is above 63.2 µM; in [3], 6.76 µM; in [4] it was above 100 µM; in assay [5], 39.9 µM; in [6] it was above 100 µM; in [7], 36.5 µM. The TGI in assay [8] stood at 9.89 µM.
Regarding `O=NN(CCCl)C(=O)NC1CCC(=O)NC1=O` (stereo not given), the TGI in assay [2] was determined as 1050 µM; in assay [3], 814 µM; in [4], 634 µM; in assay [5], 1070 µM; in assay [6], 972 µM; in [1], 791 µM. The TGI turned out to be 256 µM in assay [9]; 399 µM in assay [10]; 348 µM in assay [11]; 864 µM in assay [7]; 265 µM in assay [8].
`CCN(CC)C(=O)COc1cc2c(O)c3c(O)c(C)c4c(c13)C(=O)C(C)(OC=CC(OC)C(C)C(OC(C)=O)C(C)C(O)C(C)C(O)C(C)C=CC=C(C)C(=O)N2)O4` (stereo not given): the TGI in assay [1] is above 100 µM.
Consider `CC(=O)[CH-]C(=O)Nc1ccccc1.CC(=O)[CH-]C(=O)Nc1ccccc1.CC[O-].CC[O-].[Ti+4]`, for which the GI50 in [2], in assay [3], in [5], in assay [6] and in assay [7] was above 100 µM throughout. For the same compound, the TGI in [2], in [3], in assay [5], in assay [6] and in assay [7] was above 100 µM throughout.
Take `Cc1cc(C)nc(NS(=O)(=O)c2ccc(NC(=O)c3cccn4c(=O)c5ccccc5nc34)cc2)n1`: the TGI in assay [2], in [4], in assay [6], in assay [7] and in assay [8] was above 100 µM each time.

The values above are taken from PubChem BioAssay (NCI).
